Assay results reported in patent US9609868B2, “Alkoximino-substituted anthranilic acid diamides as pesticides” (BAYER CROPSCIENCE AKTIENGESELLSCHAFT, priority 2013, dated 2017).
Like-named read-outs stand apart in the source and are kept apart here.

Assays:
Spodoptera frugiperda = Spodoptera frugiperda - spray test (SPODFR); format: in vivo; conditions: application rate 100 g/ha, maize leaf disks
Method: Spodoptera frugiperda—Spray Test (SPODFR)
(§1) Solvent: 78.0 parts by weight of acetone • • 1.5 parts by weight of dimethylformamide
(§2) Emulsifier: 0.5 parts by weight of alkylaryl polyglycol ether
(§3) To produce a suitable active compound preparation, 1 part by weight of active compound is mixed with the stated amounts of solvent and emulsifier, and the concentrate is diluted with emulsifier-containing water to the desired concentration.
Leaf disks of maize (Zea mays) are sprayed with an active compound preparation of the desired concentration and, after drying, populated with caterpillars of the armyworm (Spodoptera frugiperda).
After the desired period of time, the efficacy in % is determined. 100% means that all the caterpillars have been killed; 0% means that no caterpillars have been killed.

Myzus persicae = Myzus persicae - spray test (MYZUPE); format: in vivo; conditions: application rate 100 g/ha, Chinese cabbage leaf disks
Method: Myzus persicae—Spray Test (MYZUPE)
Solvent: 78 parts by weight of acetone • • 1.5 parts by weight of dimethylformamide
as §2, §3
Disks of Chinese cabbage leaves (Brassica pekinensis) infested by all stages of the green peach aphid (Myzus persicae) are sprayed with an active compound preparation of the desired concentration.
After the desired period of time, the efficacy in % is determined. 100% means that all the aphids have been killed; 0% means that none of the aphids have been killed.

[1] = log P by HPLC on reversed-phase column (C18), EEC directive 79/831 Annex V.A8; format: physicochemical; conditions: for log p: data refer to the E isomer
Method: The log P values reported in the tables and Preparation Examples above were determined in accordance with EEC directive 79/831 Annex V.A8 by HPLC (High Performance Liquid Chromatography) using a reversed-phase column (C18). Temperature 43° C. The calibration is effected with unbranched alkan-2-ones (having 3 to 16 carbon atoms), for which the log P values are known.

Phaedon cochleariae = Phaedon cochleariae - spray test (PHAECO); format: in vivo; conditions: application rate 100 g/ha, Chinese cabbage leaf disks
Method: Phaedon cochleariae—Spray Test (PHAECO)
as §1, §2, §3
After the desired period of time, the efficacy in % is determined. 100% means that all the beetle larvae have been killed; 0% means that no beetle larvae have been killed.

[2] = Table A, HPLC reversed-phase C18, 43° C.
[3] = Table B, HPLC reversed-phase C18, 43° C.
[4] = reversed-phase HPLC column (C18), HPLC-MS data in the preparation text, HPLC reversed-phase C18, 43° C., read-out: log P
[5] = Table C, HPLC reversed-phase C18, 43° C.

SMILES: CON=Cc1cc(C)c(NC(=O)c2cc(OCC(F)F)nn2-c2ncccc2Cl)c(C(=O)NNC(=O)OC)c1 (mixture of isomers) [A-37]
- efficacy (caterpillars killed) (Spodoptera frugiperda): 100%
- efficacy (aphids killed) (Myzus persicae): 100%
- log p [1, 2]: 2.37

SMILES: CON=Cc1cc(C)c(NC(=O)c2cc(OC)nn2-c2ncccc2Cl)c(C(=O)NNC(=O)OC)c1 (mixture of isomers) [A-38]
- efficacy (caterpillars killed) (Spodoptera frugiperda): 100%
- efficacy (beetle larvae killed) (Phaedon cochleariae): 100%
- log p [1, 2]: 2.00

SMILES: CON=Cc1cc(C)c(NC(=O)c2cc(OC)nn2-c2ncccc2Cl)c(C(=O)NNC(=O)OC)c1 (mixture of isomers) [A-40]
- efficacy (caterpillars killed) (Spodoptera frugiperda): 100%
- efficacy (aphids killed) (Myzus persicae): 90%
- log p [1, 2]: 2.45

SMILES: CON=Cc1cc(C)c(NC(=O)c2cc(C(F)(F)F)nn2-c2ncccc2Cl)c(C(=O)NC2CS(=O)(=O)C2)c1 (mixture of isomers) [B-04]
- efficacy (caterpillars killed) (Spodoptera frugiperda): 100%
- efficacy (aphids killed) (Myzus persicae): 90%
- log p [1, 3]: 2.78

SMILES: CON=Cc1cc(C)c(NC(=O)c2cc(OC(C)C)nn2-c2ncccc2Cl)c(C(=O)NC2COC2)c1 (mixture of isomers) [B-07]
- efficacy (caterpillars killed) (Spodoptera frugiperda): 100%
- log p [1, 3]: 2.57

SMILES: CON=Cc1cc(C)c(NC(=O)c2cc(OCC(F)F)nn2-c2ncccc2Cl)c(C(=O)NC2COC2)c1 (mixture of isomers) [B-09]
- efficacy (caterpillars killed) (Spodoptera frugiperda): 100%
- efficacy (aphids killed) (Myzus persicae): 100%
- log p [1, 3]: 2.44

SMILES: CON=Cc1cc(C)c(NC(=O)c2cc(CF)nn2-c2ncccc2Cl)c(C(=O)NC2COC2)c1 (mixture of isomers) [B-12]
- efficacy (beetle larvae killed) (Phaedon cochleariae): 100%
- log p [1, 3]: 2.04

SMILES: O=C(O)c1cc(OCC(F)F)nn1-c1ncccc1Cl [1-(3-Chloropyridin-2-yl)-3-(2,2-difluoroethoxy)-1H-pyrazole-5-carboxylic acid]
- chromatographic logP [1, 4]: 1.59

SMILES: CO/N=C/c1cc(C)c(NC(=O)c2cc(OC(F)F)nn2-c2ncccc2Cl)c(C(=O)NN)c1 [1-(3-Chloropyridin-2-yl)-3-(difluoromethoxy)-N-{2-(hydrazinocarbonyl)-4-[(E)-(methoxyimino)methyl]-6-methylphenyl}-1H-pyrazole-5-carboxamide]
- chromatographic logP ([1]; log P): 2.12

SMILES: O=C(O)c1cc(CF)nn1-c1ncccc1Cl [1-(3-Chloropyridin-2-yl)-3-(fluoromethyl)-1H-pyrazole-5-carboxylic acid]
- chromatographic logP [1, 4]: 1.03

SMILES: CCOc1cc(C(=O)O)n(-c2ncccc2Cl)n1 [1-(3-chloropyridin-2-yl)-3-ethoxy-1H-pyrazole-5-carboxylic acid]
- chromatographic logP [1, 4]: 1.47

SMILES: CC(C)Oc1cc(C(=O)O)n(-c2ncccc2Cl)n1 [1-(3-chloropyridin-2-yl)-3-isopropoxy-1H-pyrazole-5-carboxylic acid]
- chromatographic logP [1, 4]: 1.76

SMILES: O=C(O)c1cc(OCc2ccc(C(F)(F)F)nc2)nn1-c1ncccc1Cl [1-(3-chloropyridin-2-yl)-3-{[6-(trifluoromethyl)pyridin-3-yl]methoxy}-1H-pyrazole-5-carboxylic acid]
- chromatographic logP [1, 4]: 1.59

SMILES: CON=Cc1cc(C)c2nc(-c3cc(OCC(F)F)nn3-c3ncccc3Cl)oc(=O)c2c1 [2-[1-(3-Chloropyridin-2-yl)-3-(2,2-difluoroethoxy)-1H-pyrazol-5-yl]-8-methyl-4-oxo-4H-3,1-benzoxazine-6-carbaldehyde O-methyl oxime]
- chromatographic logP [1, 4]: 3.92

SMILES: CON=Cc1cc(C)c2nc(-c3cc(OC(F)F)nn3-c3ncccc3Cl)oc(=O)c2c1 [2-[1-(3-Chloropyridin-2-yl)-3-(difluoromethoxy)-1H-pyrazol-5-yl]-8-methyl-4-oxo-4H-3,1-benzoxazine-6-carbaldehyde O-methyl oxime]
- chromatographic logP [1, 4]: 3.93

SMILES: CON=Cc1cc(C)c(NC(=O)c2cc(Br)nn2-c2ncccc2Cl)c(C(=O)N(C)NC(=O)Oc2ccccc2)c1 [A-05]
- efficacy (caterpillars killed) (Spodoptera frugiperda): 100%
- efficacy (aphids killed) (Myzus persicae): 100%
- log p [1, 2]: 3.46

SMILES: C=CCOC(=O)NN(C)C(=O)c1cc(C=NOC)cc(C)c1NC(=O)c1cc(Br)nn1-c1ncccc1Cl [A-07]
- efficacy (caterpillars killed) (Spodoptera frugiperda): 100%
- log p [1, 2]: 3.12

SMILES: CON=Cc1cc(C)c(NC(=O)c2cc(Br)nn2-c2ncccc2Cl)c(C(=O)NNS(C)(=O)=O)c1 [A-09]
- efficacy (caterpillars killed) (Spodoptera frugiperda): 100%
- efficacy (aphids killed) (Myzus persicae): 90%
- log p [1, 2]: 2.30

SMILES: CCOC(=O)NN(C)C(=O)c1cc(C=NOC)cc(C)c1NC(=O)c1cc(Br)nn1-c1ncccc1Cl [A-10]
- efficacy (caterpillars killed) (Spodoptera frugiperda): 100%
- efficacy (aphids killed) (Myzus persicae): 90%
- log p [1, 2]: 2.97

SMILES: CON=Cc1cc(C)c(NC(=O)c2cc(Br)nn2-c2ncccc2Cl)c(C(=O)N(NC(C)=O)C(C)=O)c1 [A-11]
- efficacy (caterpillars killed) (Spodoptera frugiperda): 100%
- efficacy (aphids killed) (Myzus persicae): 100%
- log p [1, 2]: 2.67

SMILES: CON=Cc1cc(C)c(NC(=O)c2cc(Br)nn2-c2ncccc2Cl)c(C(=O)N(NS(C)(=O)=O)S(C)(=O)=O)c1 [A-12]
- efficacy (caterpillars killed) (Spodoptera frugiperda): 100%
- log p [1, 2]: 2.99

SMILES: COCCOC(=O)NN(C)C(=O)c1cc(C=NOC)cc(C)c1NC(=O)c1cc(Br)nn1-c1ncccc1Cl [A-13]
- efficacy (caterpillars killed) (Spodoptera frugiperda): 100%
- efficacy (aphids killed) (Myzus persicae): 90%
- log p [1, 2]: 2.72

SMILES: CON=Cc1cc(C)c(NC(=O)c2cc(Br)nn2-c2ncccc2Cl)c(C(=O)N(C)NC(C)=O)c1 [A-14]
- efficacy (caterpillars killed) (Spodoptera frugiperda): 100%
- efficacy (aphids killed) (Myzus persicae): 90%
- log p [1, 2]: 2.31

SMILES: CON=Cc1cc(C)c(NC(=O)c2cc(Br)nn2-c2ncccc2Cl)c(C(=O)NNC(=O)Oc2ccccc2)c1 [A-15]
- efficacy (caterpillars killed) (Spodoptera frugiperda): 100%
- efficacy (aphids killed) (Myzus persicae): 90%
- log p [1, 2]: 3.03

SMILES: CON=Cc1cc(C)c(NC(=O)c2cc(Br)nn2-c2ncccc2Cl)c(C(=O)N(C)NC(=O)OC(C)C)c1 [A-16]
- efficacy (caterpillars killed) (Spodoptera frugiperda): 100%
- log p [1, 2]: 3.28

SMILES: CCOC(=O)NN(C)C(=O)c1cc(C=NOC)cc(C)c1NC(=O)c1cc(C(F)(F)F)nn1-c1ncccc1Cl [A-24]
- efficacy (caterpillars killed) (Spodoptera frugiperda): 100%
- log p [1, 2]: 3.31

SMILES: COCCOC(=O)NN(C)C(=O)c1cc(C=NOC)cc(C)c1NC(=O)c1cc(C(F)(F)F)nn1-c1ncccc1Cl [A-27]
- efficacy (caterpillars killed) (Spodoptera frugiperda): 100%
- log p [1, 2]: 3.05

SMILES: C=CCOC(=O)NN(C)C(=O)c1cc(C=NOC)cc(C)c1NC(=O)c1cc(C(F)(F)F)nn1-c1ncccc1Cl [A-28]
- efficacy (caterpillars killed) (Spodoptera frugiperda): 100%
- log p [1, 2]: 3.41

SMILES: CON=Cc1cc(C)c(NC(=O)c2cc(C(F)(F)F)nn2-c2ncccc2Cl)c(C(=O)N(C)NC(C)=O)c1 [A-30]
- efficacy (caterpillars killed) (Spodoptera frugiperda): 100%
- log p [1, 2]: 2.75

SMILES: CON=Cc1cc(C)c(NC(=O)c2cc(OCC(F)F)nn2-c2ncccc2Cl)c(C(=O)NC(C)C2CC2)c1 (stereo not shown) [C-18]
- efficacy (caterpillars killed) (Spodoptera frugiperda): 100%
- efficacy (aphids killed) (Myzus persicae): 90%
- log p [1, 5]: 3.39

SMILES: CON=Cc1cc(C)c(NC(=O)c2cc(OCC(F)F)nn2-c2ncccc2Cl)c(C(=O)N(C)C)c1 [C-38]
- efficacy (caterpillars killed) (Spodoptera frugiperda): 100%
- log p [1, 5]: 2.61

SMILES: COCC(C)NC(=O)c1cc(C=NOC)cc(C)c1NC(=O)c1cc(OCC(F)F)nn1-c1ncccc1Cl (stereo not shown) [C-39]
- efficacy (caterpillars killed) (Spodoptera frugiperda): 100%
- efficacy (aphids killed) (Myzus persicae): 100%
- log p [1, 5]: 2.93

SMILES: CON=Cc1cc(C)c(NC(=O)c2cc(OC)nn2-c2ncccc2Cl)c(C(=O)N(C)C)c1 [C-40]
- log p [1, 5]: 2.16

SMILES: C#CCNC(=O)c1cc(C=NOC)cc(C)c1NC(=O)c1cc(OCC(F)F)nn1-c1ncccc1Cl [C-52]
- efficacy (caterpillars killed) (Spodoptera frugiperda): 100%
- efficacy (aphids killed) (Myzus persicae): 90%
- log p [1, 5]: 2.78

SMILES: COCC(C)NC(=O)c1cc(C=NOC)cc(C)c1NC(=O)c1cc(CF)nn1-c1ncccc1Cl (stereo not shown) [C-54]
- efficacy (caterpillars killed) (Spodoptera frugiperda): 100%
- efficacy (aphids killed) (Myzus persicae): 90%
- log p [1, 5]: 2.47

SMILES: CON=Cc1cc(C)c(NC(=O)c2cc(CF)nn2-c2ncccc2Cl)c(C(=O)N(C)C)c1 [C-55]
- efficacy (caterpillars killed) (Spodoptera frugiperda): 100%
- log p [1, 5]: 2.19

SMILES: CON=Cc1cc(C)c(NC(=O)c2cc(C(F)F)nn2-c2ncccc2Cl)c(C(=O)N(C)C)c1 [C-61]
- efficacy (caterpillars killed) (Spodoptera frugiperda): 100%
- log p [1, 5]: 2.47

SMILES: CCOC(=O)c1cc(OCC(F)F)nn1-c1ncccc1Cl [Ethyl 1-(3-chloropyridin-2-yl)-3-(2,2-difluoroethoxy)-1H-pyrazole-5-carboxylate]
- chromatographic logP [1, 4]: 2.74

SMILES: Cc1cc(C=O)cc(C(=O)O)c1N [IX-1, 2-Amino-5-formyl-3-methylbenzoic acid]
- chromatographic logP [1, 4]: 1.02

SMILES: COC(=O)c1cc(CF)nn1-c1ncccc1Cl [Methyl 1-(3-chloropyridin-2-yl)-3-(fluoromethyl)-1H-pyrazole-5-carboxylate]
- chromatographic logP [1, 4]: 1.9

SMILES: CO/N=C/c1cc(C)c(N)c(C(=O)O)c1 [VIII-1, 2-Amino-5-[(E)-(methoxyimino)methyl]-3-methylbenzoic acid]
- chromatographic logP [1, 4]: 1.73
